Assay results: patent publication US12435087B2, “Modulators of DCN-1 and methods of use thereof” (Cellarity, Inc., priority 2023, dated 2025)

Target: DCN1 (DCUND1) protein PONY domain (Homo sapiens (Human), UniProt Q96GG9)
Assay: TR-FRET with FAM probe (compound potency, potency of the Cy5 probe)
Type: binding
Details: potency of the covalent Cy5 probe (P-1) to DCN1; read-out: Kd (EC50) of the Cy5 probe
Text: The recombinant form of the DCN1 (DCUND1) protein PONY domain was produced using an E. coli expression system at Viva Biotech (China). The DCN1 protein was biotinylated (EZ sulfo-NHS-LC-biotin; Thermofisher) for labeling with streptavidin terbium (Tb) cryptate in the reaction. This biotinylated protein was used in two forms of the TR-FRET assay as described below.
This version of the TR-FRET assay was used to measure compound potency to the target, specifically to measure the potency of the Cy5 probe (P-1). A non-covalent DCN1 inhibitor (Zhou et al., 2017) labeled with carboxyfluorescein (FAM) was used as the FRET acceptor probe. Displacement of the […], and thus decrease in the FRET signal, was indicative of compound activity on the target protein. Buffer conditions were optimized to enhance compound and protein stability (200 mM NaCl, 25 mM Tris, 0.5 mM DTT, 0.05% Tween20, 5% DMSO, 5% PEG-3350, pH 7.5) and concentrations of protein (0.31 nM) and probe (100 nM labeled, 800 nM unlabeled) were optimized for detection of potent molecules. The TR-FRET ratio between Tb-DCN1 and the FAM-labeled probe was measured in a 384-well opti-plate (Perkin Elmer) using a plate reader (BMG) at 1, 5, and 24 hrs after treatment with compound. The ratio was normalized to the high (DCN1 and FAM-probe) and low (DCN1 and no probe) controls for a readout of % activity (=100*(x−low)/(high−low)).

DCN1 (DCUND1) protein PONY domain, sequence (Q96GG9 60-248): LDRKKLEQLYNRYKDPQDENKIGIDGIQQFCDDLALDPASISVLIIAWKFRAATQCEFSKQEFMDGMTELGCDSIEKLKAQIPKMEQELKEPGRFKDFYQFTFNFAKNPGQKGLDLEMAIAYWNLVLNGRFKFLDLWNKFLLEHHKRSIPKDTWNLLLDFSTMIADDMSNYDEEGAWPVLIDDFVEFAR

SMILES: C=C(CN1CCOCC1)C(=O)Nc1cccc([C@@H]2c3cnn(-c4cccc(OCCCN5CCN(C(=O)CCCCCN6/C(=C/C=C/C=C/C7=[N+](C)c8ccc(S(=O)(=O)[O-])cc8C7(C)C)C(C)(C)c7cc(S(=O)(=O)O)ccc76)CC5)c4)c3N(CC)C(=O)[C@H]2NC(=O)c2cccc(C(F)(F)F)c2)c1 [Cy5 probe, 2-((1E,3E)-5-((E)-1-(6-(4-(3-(3-((4R,5S)-7-ethyl-4-(3-(2-(morpholinomethyl)acrylamido)phenyl)-6-oxo-5-(3-(trifluoromethyl)benzamido)-4,5,6,7-tetrahydro-1H-pyrazolo[3,4-b]pyridin-1-yl)phenoxy)propyl)piperazin-1-yl)-6-oxohexyl)-3,3-dimethyl-5-sulfoindolin-2-ylidene)penta-1,3-dien-1-yl)-1,3,3-trimethyl-3H-indol-1-ium-5-sulfonate]
- EC50: 23.2 nM
